# Measured values: patent US9573910B2, “Oxazolidinone antibacterial compound” (Lee Pharma Limited, priority 2013, dated 2017)
# Read-outs that look alike come from different tables or passages of the source.
# Columns and labels:
# S. maltophilia = assay: Susceptibility test profile for commercially available antibiotics; type: cell-based, Stenotrophomonas maltophilia
# Description: Anti bacterial evaluation of compound-I was done against Stenotrophomonas maltophilia on following parameters— • f. Agar-plate assay for different concentrations (10, 50, 100, 150 μg) • g. MIC studies • 1. With different concentrations (1000 to 5 μg/ml-˜10 different concentrations) • 2. Different time periods (4 to 32 hrs—8 different time intervals) • h. Mode of action with relation to survivability of organism • 1. Cidal/static with concentration and incubation time based) • 2. Evaluation by colony counting/dye based • i. Susceptibility test (evaluation of >40 antibiotics of different nature) • j. Antibacterial potential studies with other infectious bacteria (˜20 different strains) Results Agar-Plate Assay
# Susceptibility Test Profile of S. maltophilia for Different Antibiotics (FIG. 10)
# S. mutans = type: cell-based
# B. cereus (3) = type: cell-based
# [1] = tested on: Stenotrophomonas maltophilia; assay: Agar plate assay, zone of growth inhibition; type: cell-based; conditions: for zone of inhibition at 50 µg/disc: Stenotrophomonas maltophilia, read-out: Zone of growth inhibition in mm; for Activity against S. maltophilia (in words): agar plate
# Description: To evaluate the same, 0 to 250 μg concentration range used for agar plate assay. Two percent agar plates were prepared and 24 hours grown S. maltophilia was spread on agar plate and incubated at 4° C. After 30 min, the agar plates consisting of S. maltophilia were brought to sterile environment at room temperature and using sterile borer wells were developed. […] After 24 hours of incubation at 37° C., the zone of inhibition was measured.
# B. sphaericus = type: cell-based
# P. aeruginosa = type: cell-based
# B. subtilis = type: cell-based
# P. vulgaris = type: cell-based
# K. pneumonia = type: cell-based
# S. maltophilla = type: cell-based
# B. megatherium = type: cell-based
# B. cereus (2) = type: cell-based
# B. circulans = type: cell-based
# S. typhi = type: cell-based
# E. coli = type: cell-based
# M. luteus = type: cell-based
# P. mirabilis = type: cell-based
# B. sterothemophilus = type: cell-based
# P. putida = type: cell-based
# Lysinobacillus = type: cell-based
# B. cereus (1) = type: cell-based
compound,measurement,setting,value
CC[C@H]1OC(=O)[C@H](C)[C@@H](O[C@H]2C[C@@](C)(OC)[C@@H](O)[C@H](C)O2)[C@H](C)[C@@H](O[C@@H]2O[C@H](C)C[C@H](N(C)C)[C@H]2O)[C@](C)(OC)C[C@@H](C)C(=O)[C@H](C)[C@@H](O)[C@]1(C)O [Clarithromycin],Zone (mm),S. maltophilia; Quantity 15 μg,Resistant
O=C1OCCN1/N=C/c1ccc([N+](=O)[O-])o1 [Furazolidone],Zone (mm),S. maltophilia; Quantity 50 μg,Resistant
CCC[C@@H]1C[C@@H](C(=O)N[C@@H]([C@H]2O[C@H](SC)[C@H](O)[C@@H](O)[C@H]2O)[C@@H](C)O)N(C)C1 [Lincomycin],Zone (mm),S. maltophilia; Quantity 2 μg,Resistant
CC(=O)NC[C@H]1CN(c2ccc(N3CCOCC3)c(F)c2)C(=O)O1 [Linezolid],Zone of growth inhibition in mm,S. mutans,40 mm
same,Zone of growth inhibition in mm,B. cereus (3),45 mm
same,zone of inhibition at 50 µg/disc,"[1]; S. maltophilia, agar plates, 50 μg of each compound dissolved in DMSO",0 mm
same,Activity against S. maltophilia (in words),[1],not inhibitory
same,Zone of growth inhibition in mm,B. sphaericus,30 mm
same,Zone of growth inhibition in mm,P. aeruginosa,00 mm
same,Zone of growth inhibition in mm,B. subtilis,40 mm
same,Zone of growth inhibition in mm,P. vulgaris,00 mm
same,Zone of growth inhibition in mm,K. pneumonia,35 mm
same,Zone of growth inhibition in mm,S. maltophilla,00 mm
same,Zone of growth inhibition in mm,B. megatherium,37 mm
same,Zone of growth inhibition in mm,B. cereus (2),35 mm
same,Zone of growth inhibition in mm,S. paratyphi,00 mm
same,Zone of growth inhibition in mm,B. circulans,38 mm
same,Zone of growth inhibition in mm,S. typhi,40 mm
same,Zone of growth inhibition in mm,E. coli,35 mm
same,Zone of growth inhibition in mm,M. luteus,45 mm
same,Zone of growth inhibition in mm,P. mirabilis,35 mm
same,Zone of growth inhibition in mm,B. sterothemophilus,00 mm
same,Zone of growth inhibition in mm,P. putida,00 mm
same,Zone of growth inhibition in mm,Lysinobacillus,40 mm
same,Zone of growth inhibition in mm,B. cereus (1),00 mm
CCn1cc(C(=O)O)c(=O)c2ccc(C)nc21 [Nalidixic],Zone (mm),S. maltophilia; Quantity 30 μg,7 mm
"CCN[C@@H]1C[C@H](N)[C@@H](O[C@H]2OC(CN)=CC[C@H]2N)[C@H](O)[C@H]1O[C@H]1OC[C@](C)(O)[C@H](NC)[C@H]1O.CCN[C@@H]1C[C@H](N)[C@@H](O[C@H]2OC(CN)=CC[C@H]2N)[C@H](O)[C@H]1O[C@H]1OC[C@](C)(O)[C@H](NC)[C@H]1O.O=S(=O)(O)O.O=S(=O)(O)O.O=S(=O)(O)O.O=S(=O)(O)O.O=S(=O)(O)O [Netillin(Netilmicin sulphate), Netilmicin sulphate]",Zone (mm),S. maltophilia; Quantity 30 μg,7 mm
CN[C@H](CC(C)C)C(=O)N[C@H]1C(=O)N[C@@H](CC(N)=O)C(=O)N[C@H]2C(=O)N[C@H]3C(=O)N[C@H](C(=O)N[C@H](C(=O)O)c4cc(O)cc(O)c4-c4cc3ccc4O)[C@H](O)c3ccc(c(Cl)c3)Oc3cc2cc(c3O[C@@H]2O[C@H](CO)[C@@H](O)[C@H](O)[C@H]2O[C@H]2C[C@](C)(N)[C@H](O)[C@H](C)O2)Oc2ccc(cc2Cl)[C@H]1O [Vancomycin],Zone of growth inhibition in mm,S. mutans,30 mm
same,Zone of growth inhibition in mm,B. cereus (3),32 mm
same,zone of inhibition at 50 µg/disc,[1],0 mm
same,Activity against S. maltophilia (in words),[1],not inhibitory
same,Zone of growth inhibition in mm,B. sphaericus,12 mm
same,Zone of growth inhibition in mm,P. aeruginosa,00 mm
same,Zone of growth inhibition in mm,B. subtilis,25 mm
same,Zone of growth inhibition in mm,P. vulgaris,00 mm
same,Zone of growth inhibition in mm,K. pneumonia,25 mm
same,Zone of growth inhibition in mm,S. maltophilla,00 mm
same,Zone of growth inhibition in mm,B. megatherium,27 mm
same,Zone of growth inhibition in mm,B. cereus (2),27 mm
same,Zone of growth inhibition in mm,S. paratyphi,25 mm
same,Zone of growth inhibition in mm,B. circulans,27 mm
same,Zone of growth inhibition in mm,S. typhi,14 mm
same,Zone of growth inhibition in mm,E. coli,25 mm
same,Zone of growth inhibition in mm,M. luteus,32 mm
same,Zone of growth inhibition in mm,P. mirabilis,27 mm
same,Zone of growth inhibition in mm,B. sterothemophilus,00 mm
same,Zone of growth inhibition in mm,P. putida,00 mm
same,Zone of growth inhibition in mm,Lysinobacillus,30 mm
same,Zone of growth inhibition in mm,B. cereus (1),00 mm
Gentamicin,Zone (mm),S. maltophilia; Quantity 10 μg,7 mm
Penicillin,Zone (mm),S. maltophilia; Quantity 10 μg,6 mm
Teicoplanin,Zone (mm),S. maltophilia; Quantity 30 μg,4 mm
